# From article PMC8012331, “Drug-induced hepatic steatosis in absence of severe mitochondrial dysfunction in HepaRG cells: proof of multiple mechanism-based toxicity” (Cell Biology and Toxicology, 2020)
# Several values for one entry are separate records, joined by “and”; a condition that tells them apart may be missing. Identical values can stand only once. Like-named read-outs stand apart in the source and are kept apart here.
# Assays:
# HepaRG cells [1] = experiment: Neutral lipids with Nile red in HepaRG cells; settings: 4 days, selected concentrations (ATP loss < 30%, not above 100 × Cmax), vs control
# Procedure: (§1) Briefly, HepaRG cells were seeded in 96-well plates at a density of 2.6 × 10^4 cells/cm^2 and were first incubated in William’s E medium supplemented with 10% FBS (50% FBS from Eurobio and 50% FBS from GE Healthcare), 100 U/mL penicillin, 100 μg/mL streptomycin, 2 mM glutamine, 5 μg/mL insulin, and 50 μM hydrocortisone hemisuccinate. […] During this 1-month period, the culture medium was renewed three times a week. […] HepaRG cells were next cultured in the same FBS/DMSO conditions and incubated for 4 days with each drug at different concentrations. Culture medium was renewed every day and all investigations were performed after 96 h (i.e., 24 h after the fourth treatment). These investigations were mostly performed in 96-well plates except for western blot analysis, for which 6-well plates were used. Experiments were carried out on passages 9 to 16. All drugs (except DPEN), etomoxir, lomitapide, tunicamycin, thapsigargin, and TUDCA were dissolved in DMSO. DPEN was dissolved in water.
# (§2) Cells were then incubated with PBS containing 0.1 μg/mL Nile red for 30 min and washed once. […] For each well, four pictures were taken at a magnification of × 20 and analyzed with Columbus software (PerkinElmer) for quantification. These pictures were always taken in four different areas around the center of each well, and these areas were the same from one well to another, as programmed by the Columbus software. This software was also designed to count only living cells after exclusion of dying cells harboring nuclei with abnormal shape or altered Hoechst intensity. […] Neutral lipids were then normalized per number of nuclei and expressed relative to control cells. Examples of images used for neutral lipid quantification are shown in Supplementary Fig. 2.
# ATP citrate lyase (ACLY) = experiment: RT-qPCR ACLY mRNA in HepaRG cells; assay type: cell-based, human; settings: 4 days, vs control
# Procedure: (§3) Total RNA was extracted with the Nucleospin RNA isolation system purchased from Macherey-Nagel (Düren, Germany), which included a DNase treatment step. Quantification of isolated RNAs was assessed using a Nanodrop 1000 (Thermo Fisher Scientific, Waltham, MA). RNAs were reverse-transcribed into cDNAs using the High-Capacity cDNA Reverse Transcription Kit purchased from Applied Biosystems (Woolston, UK). Gene expression was assessed by real-time quantitative PCR analysis (RT-qPCR) using SYBR Green PCR Master Mix (Applied Biosystems) and a 384-well QuantStudio™ 7 Flex Real-Time PCR System (Thermo Fisher Scientific). Sequences of the primers used to measure gene expression are presented in Supplementary Table 3. Expression of GAPDH was chosen as reference and the 2^−ΔΔCt calculation method was used to express the relative expression of each selected gene.
# [2] = test system: de novo lipogenesis (DNL); experiment: DNL from [2-14C]acetic acid in HepaRG cells; assay type: cell-based, human; settings: 4 days, vs control
# Procedure: (§4) Experiments were carried out on passages 9 to 16. […] DPEN was dissolved in water.
# DNL was assessed by measuring newly synthesized radiolabeled lipids from [2-^14C]acetic acid, using a protocol adapted from Byrne et al. ([2014]). Briefly, culture medium was removed and cells were washed with warm PBS. Next, cells were incubated for 3 h with phenol red-free William’s E medium containing 1% fatty acid-free BSA, [2-^14C]acetic acid (1850 Bq per well, corresponding to 19.4 pM) and 50 μM cold acetic acid. Medium was then gently removed and cells were washed with warm PBS before adding a mix of hexane/isopropanol (3:2; v/v). Cell culture plates were sealed and incubated for 1 h at room temperature for lipid extraction. After transfer of the plate content in 200-μL microtubes, hexane and PBS were added to have a hexane/isopropanol/PBS ratio of 6:2:3 (v/v/v). Microtubes were then centrifuged at 1000×g for 5 min and radiolabeled lipids were counted in the upper phase with a Tri-Carb 4910TR liquid scintillation counter (PerkinElmer). Results were normalized to total protein content and expressed in comparison to control cells.
# [3] = test system: stearoyl-CoA desaturase 1 (hSCD1); experiment: RT-qPCR hSCD1 mRNA in HepaRG cells; assay type: cell-based, human; settings: 4 days, vs control
# Procedure: as §3
# apoB secretion = experiment: apoB level in culture medium (ELISA), HepaRG cells; assay type: cell-based, human; settings: 4 days; for Effect on apoB secretion: culture medium, vs control
# Procedure: as §4
# Twenty-four hours after the last treatment, cell supernatants were removed and stored at − 80 °C until use for apolipoprotein measurement. ApoB level was measured using the Human Apolipoprotein B ELISA^pro kit from Mabtech (Nacka Strand, Sweden), according to the manufacturer’s instructions. Briefly, 50 μL of samples were diluted 2× in Apo ELISA buffer before a 2-h incubation in the precoated strip plates provided in the kit. The plates were washed and incubated 1 h with the biotinylated monoclonal anti-human apoB (LDL-11-biotin) antibody. The plates were then washed and incubated 1 h with a streptavidin–horseradish peroxidase conjugated antibody. After another washing, 3,3′,5,5′-tetramethylbenzidine (TMB) was used as substrate for 15 min before adding a stop solution. Absorbance at 450 nm was then measured using a POLARstar Omega microplate reader (BMG Labtech, Ortenberg). ApoB level was calculated utilizing a four-parameter standard curve, and normalized to the total cellular protein content and expressed in comparison to control cells.
# [4] = Maximum plasma concentration (Cmax) in patients; assay type: in vivo, human
# [5] = treated patients, cited from earlier work
# HepaRG cells [6] = experiment: Cellular ATP level (CellTiter-Glo) in HepaRG cells; assay type: cell-based, human; settings: 4 days, vs controls
# Procedure: Cellular ATP level was measured using the CellTiter-Glo® Luminescent Cell Viability assay purchased from Promega (Charbonnières, France), according to the manufacturer’s instructions. Briefly, control and treated HepaRG cells were first washed with warm PBS and kept for 30 min at room temperature in phenol red-free William’s E medium. Cells were next incubated with the CellTiter-Glo® reagent for 10 min at room temperature. Cells were then transferred in opaque-walled multiwell plates and the luminescent signal was quantified using a POLARstar Omega microplate reader (BMG Labtech, Ortenberg, Germany). Results were expressed in comparison to control cells.
# [7] = test system: fatty acid translocase (FAT, also known as CD36); experiment: RT-qPCR FAT/CD36 mRNA in HepaRG cells; assay type: cell-based, human; settings: 4 days
# Procedure: as §3
# [8] = test system: mitochondrial fatty acid oxidation (mtFAO); experiment: mtFAO with [U-14C]palmitic acid in HepaRG cells; assay type: cell-based, human; settings: 4 days, vs control
# Procedure: as §4
# Results were normalized to total protein content determined using the Pierce BCA assay kit from Thermo Fischer Scientific (Waltham, MA). Results were expressed in comparison to control cells.
# [9] = cited from earlier work; for Cmax: read-out: Maximum plasma concentration (Cmax) in patients
# ERN1 (IRE1α) = experiment: RT-qPCR ERN1 mRNA in HepaRG cells; assay type: cell-based, human; settings: 4 days, vs control
# Procedure: as §3
# [10] = test system: fatty acid synthase (FASN); experiment: RT-qPCR FASN mRNA in HepaRG cells; assay type: cell-based, human; settings: 4 days, vs control
# Procedure: as §3
# apoC3 secretion = experiment: apoC3 level in culture medium (HTRF), HepaRG cells; assay type: cell-based, human; settings: 4 days; for Effect on apoC3 secretion: culture medium, vs control
# Procedure: as §1
# Apolipoprotein C3 (apoC3) level was measured using the Human Apolipoprotein C3 kit from Cisbio Bioassays (Codolet, France), according to the manufacturer’s instructions. Briefly, 10 μL of supernatants was incubated with two different specific anti-human apoC3 antibodies, one donor and one acceptor. The detection principle of apoC3 is based on HTRF® (Homogeneous Time Resolved Fluorescence), a time-resolved FRET (Förster Resonance Energy Transfer) technology. After 2 h of incubation, light emission was measured with the Infinite F Nano+ microplate reader (Tecan, Männedorf, Switzerland). ApoC3 level was calculated utilizing standard curve, based on the ratio of A665 nm/A615 nm, and normalized to the total cellular protein content. Results were expressed in comparison to control cells.
# [11] = test system: acetyl-CoA carboxylase alpha (ACACA); experiment: RT-qPCR ACACA mRNA in HepaRG cells; assay type: cell-based, human; settings: 4 days, vs control
# Procedure: as §3
# [12] = test system: primary human hepatocytes (PHH); experiment: Neutral lipids with Nile red in primary human hepatocytes; assay type: cell-based; settings: 4 days
# Procedure: Primary human hepatocytes (PHH) were purchased from Biopredic International (Saint-Grégoire, France). Cells were seeded by the supplier in coated 96-well plates at a density of 5 × 10^4 cells/well. Upon receipt, culture medium was removed and replaced by William’s E medium supplemented as previously described for HepaRG cell differentiation, except for DMSO set at 1%. After 2–3 days, cells were treated as for HepaRG cells. For HepaRG cells and PHH, cells were always maintained in incubators at 37 °C with 5% CO2 and saturating humidity.
# as §2
# [13] = test system: angiopoietin-like 3 (ANGPTL3); experiment: RT-qPCR ANGPTL3 mRNA in HepaRG cells; assay type: cell-based, human; settings: 4 days, vs control
# Procedure: as §3
# [14] = test system: microsomal triglyceride transfer protein (MTTP); experiment: RT-qPCR MTTP mRNA in HepaRG cells; assay type: cell-based, human; settings: 4 days, vs control
# Procedure: as §3
# apolipoprotein B (APOB) = experiment: RT-qPCR APOB mRNA in HepaRG cells; assay type: cell-based, human; settings: 4 days, vs control
# Procedure: as §3
# [15] = test system: apolipoprotein C3 (APOC3); experiment: RT-qPCR APOC3 mRNA in HepaRG cells; assay type: cell-based, human; settings: 4 days, vs control
# Procedure: as §3
# [16] = high dose chemotherapy, ref Holmboe L et al., Br J Clin Pharmacol. 2012;73(1):106-14
# [17] = rheumatoid arthritis treatment, ref Hoekstra M et al., J Rheumatol. 2004;31(4):645-8
# [18] = worked out from cited Cmax in patients
Compound,Accumulation of neutral lipids (steatosis) (HepaRG cells [1]),ACLY mRNA level (ATP citrate lyase (ACLY)),Effect on DNL [2],Effect on apoB secretion (apoB secretion),Loss of cellular ATP relative to the maximum concentration selected for the study (HepaRG cells [6]),Effect on mtFAO [8],"Concentration corresponding to 100xCmax [4, 18]",ERN1 (IRE1α) mRNA level (ERN1 (IRE1α)),Effect on apoC3 secretion (apoC3 secretion),"Maximum plasma concentration (Cmax) in patients ([9]; patients, ref given per drug)","Cmax ([9]; patients, ref given per drug)",other results
"CCCCc1oc2ccccc2c1C(=O)c1cc(I)c(OCCN(CC)CC)c(I)c1 [AMIO, amiodarone]",significant accumulation of neutral lipids,enhanced mRNA level,increased DNL,–,–,–,–,–,–,–,–,hSCD1 mRNA level [3]: enhanced mRNA level
"CN(Cc1cnc2nc(N)nc(N)c2n1)c1ccc(C(=O)N[C@@H](CCC(=O)O)C(=O)O)cc1 [METHO, methotrexate]",significant accumulation of neutral lipids,–,curb this metabolic pathway,did not reduce,"150 µM (loss of cellular ATP below 30% of the controls for this concentration, as shown in Supp. fig 1)",significantly enhance mtFAO,–,–,–,–,–,"Concentration corresponding to 100xCmax ([4]; from Cmax of high dose chemotherapy): 150000 µM; Concentration corresponding to 100xCmax ([4]; from Cmax of rheumatoid arthritis treatment): 130 µM; Therapeutic blood (or plasma) concentration in patients ([5]; ref Schulz M et al., Crit Care 2012 ;16(4):R136, listed as Methotrexate (METHO)): 0.04 mg/L and 0.09 µM; Increase of FAT/CD36 mRNA level ([7]; 50 μM): 60%; Increase of FAT/CD36 mRNA level ([7]; 150 μM): 55%; Maximum plasma concentration (Cmax) in patients [9, 16]: ≤ 680000 ng/mL; Cmax [9, 16]: ≤ 1500 µM; Maximum plasma concentration (Cmax) in patients [9, 17]: ≤ 594 ng/mL; Cmax [9, 17]: ≤ 1.3 µM"
"CC1=C(CC(=O)O)c2cc(F)ccc2/C1=C\c1ccc([S+](C)[O-])cc1 (stereo not shown) [SUL, sulindac]",significant accumulation of neutral lipids,augmented mRNA abundance,increased DNL,reduced the secretion,"1000 µM (loss of cellular ATP above 30% of the controls for higher concentrations, as shown in Supp. fig 1)",–,3200 µM,enhanced IRE1α mRNA level,reduced the secretion,≤ 11400 ng/mL,≤ 32 µM,"Therapeutic blood (or plasma) concentration in patients ([5]; ref Schulz M et al., Crit Care 2012 ;16(4):R136, listed as Sulindac (SUL)): 1 - 5 mg/L and 2.8 - 14 µM; FASN mRNA level [10]: augmented mRNA abundance; ACACA mRNA level [11]: augmented mRNA abundance"
"Cc1c(C)c2c(c(C)c1O)CCC(C)(COc1ccc(CC3SC(=O)NC3=O)cc1)O2 (stereo not shown) [TRO, troglitazone]",significant accumulation of neutral lipids,–,curb this metabolic pathway,reduced the secretion,"47.5 µM (loss of cellular ATP above 30% of the controls for higher concentrations, as shown in Supp. fig 1)",significantly enhance mtFAO,640 µM,enhanced IRE1α mRNA level,reduced the secretion,≤ 2830 ng/mL,≤ 6.4 µM,"Steatosis in PHH batches (six batches tested) [12]: induced steatosis in only one PHH batch; Secretion of apoB (apoB secretion; 45 and 47.5 μM): less than 10 % of the respective control; Therapeutic blood (or plasma) concentration in patients ([5]; ref Loi CM et al., J Clin Pharmacol 1999;39(9):920-6, Plosker GL and Faulds D. Drugs 1999;57(3):409-438, listed as Troglitazone (TRO)): 0.90 - 2.82 mg/L and 2.0 - 6.4 µM; ANGPTL3 mRNA level [13]: nearly abolish the mRNA abundance; MTTP mRNA level [14]: nearly abolish the mRNA abundance; APOB mRNA level (apolipoprotein B (APOB)): nearly abolish the mRNA abundance; Secretion of apoC3 (apoC3 secretion; 45 and 47.5 μM): less than 10 % of the respective control; APOC3 mRNA level [15]: nearly abolish the mRNA abundance"
